Read-outs that look alike come from different tables or passages of the source.
Key:
FMS = FMS (Homo sapiens, UniProt P07333); test: Reaction Biology Kinase HotSpot kinase assay, FMS
FLT3(h) = target: T1, FLT3(h) (Homo sapiens, UniProt P36888); test: Reaction Biology Kinase HotSpot radiometric kinase assay, FLT3; details: for times more potent than 5f against FLT3: ratio of FLT3 IC50 versus 5f
T1 sequence (P36888 27-993): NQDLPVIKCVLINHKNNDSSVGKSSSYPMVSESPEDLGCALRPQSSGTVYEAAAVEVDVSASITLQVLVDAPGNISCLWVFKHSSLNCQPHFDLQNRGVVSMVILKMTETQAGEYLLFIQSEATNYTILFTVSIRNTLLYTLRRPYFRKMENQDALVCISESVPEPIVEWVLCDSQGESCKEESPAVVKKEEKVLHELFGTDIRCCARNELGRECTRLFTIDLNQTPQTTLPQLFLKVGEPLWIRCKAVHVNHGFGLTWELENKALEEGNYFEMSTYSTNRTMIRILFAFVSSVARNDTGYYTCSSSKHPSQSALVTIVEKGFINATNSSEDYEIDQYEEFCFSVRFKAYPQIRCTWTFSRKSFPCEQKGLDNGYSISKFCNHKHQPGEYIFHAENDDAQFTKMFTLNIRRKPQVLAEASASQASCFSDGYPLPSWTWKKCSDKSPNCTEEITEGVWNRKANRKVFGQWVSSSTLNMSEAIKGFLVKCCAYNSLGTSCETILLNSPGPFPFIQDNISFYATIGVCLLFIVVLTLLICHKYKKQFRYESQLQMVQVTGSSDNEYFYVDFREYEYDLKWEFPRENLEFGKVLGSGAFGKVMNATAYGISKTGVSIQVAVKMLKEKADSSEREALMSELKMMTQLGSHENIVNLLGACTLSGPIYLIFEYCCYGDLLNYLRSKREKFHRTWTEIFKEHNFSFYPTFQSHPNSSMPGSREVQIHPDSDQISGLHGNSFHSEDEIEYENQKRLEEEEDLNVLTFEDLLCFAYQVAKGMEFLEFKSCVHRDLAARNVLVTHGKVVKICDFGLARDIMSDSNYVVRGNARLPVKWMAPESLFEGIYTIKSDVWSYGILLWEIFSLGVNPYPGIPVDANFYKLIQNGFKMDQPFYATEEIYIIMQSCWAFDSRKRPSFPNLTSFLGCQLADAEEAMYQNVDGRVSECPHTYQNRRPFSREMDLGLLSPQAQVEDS

FLT3 (ITD) = target: T2, FLT3 (ITD) (Homo sapiens, UniProt P36888, ITD); test: kinase panel screen, FLT3 (ITD); details: read-out: % Inhibition FLT3 (ITD)
T2 sequence (P36888 564-993): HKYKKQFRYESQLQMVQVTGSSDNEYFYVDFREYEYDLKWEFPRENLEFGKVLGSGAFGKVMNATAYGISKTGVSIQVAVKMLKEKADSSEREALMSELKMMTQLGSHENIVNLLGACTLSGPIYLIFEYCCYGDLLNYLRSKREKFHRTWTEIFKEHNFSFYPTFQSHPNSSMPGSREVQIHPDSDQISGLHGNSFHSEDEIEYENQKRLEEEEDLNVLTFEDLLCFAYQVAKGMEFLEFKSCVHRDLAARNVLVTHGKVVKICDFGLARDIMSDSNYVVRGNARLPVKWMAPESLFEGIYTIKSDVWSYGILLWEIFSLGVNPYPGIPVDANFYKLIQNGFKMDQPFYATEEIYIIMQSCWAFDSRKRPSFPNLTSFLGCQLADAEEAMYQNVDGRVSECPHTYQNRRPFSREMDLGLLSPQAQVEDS

RAF1 = RAF1 (Homo sapiens, UniProt P04049); test: kinase panel screen, RAF1; details: read-out: % Inhibition RAF1
FLT-3 = tested on: FLT-3; design: method as in earlier work; details: competitive-binding assays in vitro; read-out: IC50 against FLT-3; cited from earlier work
KIT = tested on: KIT; design: method as in earlier work; details: competitive-binding assays in vitro; read-out: IC50 against KIT; cited from earlier work

Chain of FMS (P07333 20-972): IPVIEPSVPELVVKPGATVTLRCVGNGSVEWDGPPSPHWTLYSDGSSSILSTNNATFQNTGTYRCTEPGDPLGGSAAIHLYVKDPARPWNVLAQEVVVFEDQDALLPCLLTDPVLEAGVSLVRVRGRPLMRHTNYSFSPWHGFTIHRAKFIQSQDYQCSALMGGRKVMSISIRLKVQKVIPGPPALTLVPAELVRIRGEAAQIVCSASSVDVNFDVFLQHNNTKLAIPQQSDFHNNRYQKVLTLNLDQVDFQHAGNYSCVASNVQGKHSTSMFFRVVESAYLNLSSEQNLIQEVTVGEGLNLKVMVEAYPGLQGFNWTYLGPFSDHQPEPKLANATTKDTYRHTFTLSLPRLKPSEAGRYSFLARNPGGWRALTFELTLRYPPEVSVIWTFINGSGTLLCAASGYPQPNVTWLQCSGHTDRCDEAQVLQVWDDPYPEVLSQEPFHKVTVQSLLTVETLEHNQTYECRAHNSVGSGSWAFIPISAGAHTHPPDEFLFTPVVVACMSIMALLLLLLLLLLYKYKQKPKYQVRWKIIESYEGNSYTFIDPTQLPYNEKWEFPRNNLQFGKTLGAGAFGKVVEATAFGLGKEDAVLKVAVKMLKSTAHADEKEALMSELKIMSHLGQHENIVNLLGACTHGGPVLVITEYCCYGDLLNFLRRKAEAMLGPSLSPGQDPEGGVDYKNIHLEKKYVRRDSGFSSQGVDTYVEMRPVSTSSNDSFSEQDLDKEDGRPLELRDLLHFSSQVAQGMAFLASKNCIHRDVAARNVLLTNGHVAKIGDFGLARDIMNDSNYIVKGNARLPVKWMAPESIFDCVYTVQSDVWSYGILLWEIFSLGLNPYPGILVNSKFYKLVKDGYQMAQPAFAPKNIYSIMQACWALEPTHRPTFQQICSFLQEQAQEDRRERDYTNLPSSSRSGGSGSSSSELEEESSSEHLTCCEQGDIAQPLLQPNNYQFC
Chain of RAF1 (P04049 whole entry): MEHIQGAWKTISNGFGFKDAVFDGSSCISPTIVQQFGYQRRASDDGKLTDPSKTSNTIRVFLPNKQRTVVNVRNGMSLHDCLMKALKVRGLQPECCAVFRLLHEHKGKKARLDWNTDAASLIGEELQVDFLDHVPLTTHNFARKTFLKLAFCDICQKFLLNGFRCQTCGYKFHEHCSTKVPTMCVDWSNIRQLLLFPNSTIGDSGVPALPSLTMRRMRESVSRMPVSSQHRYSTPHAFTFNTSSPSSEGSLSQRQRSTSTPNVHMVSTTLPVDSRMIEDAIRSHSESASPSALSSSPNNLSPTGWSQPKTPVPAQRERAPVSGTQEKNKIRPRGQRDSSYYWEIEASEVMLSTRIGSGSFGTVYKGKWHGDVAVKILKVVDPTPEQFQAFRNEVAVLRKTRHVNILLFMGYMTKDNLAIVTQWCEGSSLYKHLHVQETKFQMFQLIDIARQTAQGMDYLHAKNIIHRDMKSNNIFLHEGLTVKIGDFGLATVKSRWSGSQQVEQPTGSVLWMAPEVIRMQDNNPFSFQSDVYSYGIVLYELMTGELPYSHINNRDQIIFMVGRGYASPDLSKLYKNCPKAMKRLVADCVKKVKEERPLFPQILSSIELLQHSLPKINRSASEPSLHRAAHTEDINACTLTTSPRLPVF

SMILES: Cc1oncc1C(=O)Nc1ccc2nc(-c3cc(N4CCN(C)CC4)cc(C(F)(F)F)c3)[nH]c2c1 [5a, 5-methyl-N-(2-(3-(4-methylpiperazin-1-yl)-5-(trifluoromethyl)phenyl)-1H-benzo[d]imidazole-5-yl) isoxazole-4-carboxamide]
- inhibition at 10 µM (FMS; read-out: % Inhibition FMS): 0%
- IC50 (FLT3(h)): 0.495 µM
- inhibition at 10 µM (FLT3(h); read-out: % Inhibition FLT3): 90%
- inhibition at 10 µM (FLT3 (ITD)): 88.5%
- inhibition at 10 µM (RAF1): 8.47%

SMILES: Cc1oncc1C(=O)Nc1ccc2[nH]c(-c3cc(N4CCOCC4)cc(C(F)(F)F)c3)nc2c1 [5b]
- IC50 (FLT3(h); read-out: IC50 (µM) FLT3, enzymatic activity, Table 1, NA not defined): 7.94 µM

SMILES: Cc1oncc1C(=O)Nc1ccc2[nH]c(-c3ccc(N4CCOCC4)c(C(F)(F)F)c3)nc2c1 [5c]
- IC50 (FLT3(h)): ~10 µM

SMILES: Cc1cn(-c2cc(-c3nc4cc(NC(=O)c5cnoc5C)ccc4[nH]3)cc(C(F)(F)F)c2)cn1 [5d]
- IC50 (FLT3(h)): 2.33 µM
- times more potent than 5f against FLT3 (FLT3(h)): 6–8 times

SMILES: Cc1oncc1C(=O)Nc1ccc2[nH]c(-c3cc(-n4cncc4C)cc(C(F)(F)F)c3)nc2c1 [5e]
- IC50 (FMS): 9.98 µM
- IC50 (FLT3(h)): 1.62 µM
- times more potent than 5f against FLT3 (FLT3(h)): 6–8 times

SMILES: Cc1oncc1C(=O)Nc1ccc2[nH]c(-c3cc(-n4ccnc4C)cc(C(F)(F)F)c3)nc2c1 [5f]
- IC50 (FLT3(h)): 13.4 µM

SMILES: Cc1oncc1C(=O)Nc1cccc2[nH]c(-c3cc(N4CCN(C)CC4)cc(C(F)(F)F)c3)nc12 [6a]
- IC50 (FLT3(h)): 2.25 µM

SMILES: Cc1oncc1C(=O)Nc1cccc2[nH]c(-c3ccc(N4CCOCC4)c(C(F)(F)F)c3)nc12 [6b]
- IC50 (FLT3(h)): 13.9 µM

SMILES: Cc1cn(-c2cc(-c3nc4c(NC(=O)c5cnoc5C)cccc4[nH]3)cc(C(F)(F)F)c2)cn1 [6c]
- IC50 (FLT3(h)): 6.2 µM

SMILES: CC(C)(C)c1cc(NC(=O)Nc2ccc(-c3ccc(N)nc3)cc2)no1 [compound 1]
- IC50 (FLT-3): 0.001 µM
- IC50 (KIT): 0.001 µM
